Laboratory results: US10047051B2, “Substituted pyridines and method of use” (AbbVie S.á{acute over (.)}r.l., priority 2015, dated 2018)

Key:
CFTR ΔF508 mutant = molecular target: T1, CFTR ΔF508 mutant (Homo sapiens, UniProt P13569, DEL508-508); assay: YFP-halide influx assay for the CFTR-ΔF508 mutation (CFBE41o- cells); assay type: cell-based; conditions: forskolin 10.67 μM; for EC50: from (1−F/F0) vs concentration plot
T1 construct: expressed in transfected cells; host or cells: CFBE41o- cells, adenoviral transduction
How it was run: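 EC50 derived from plotting 1−F/F0 (fluorescence 36 s after iodide injection over pre-injection value) against compound concentration. Cells: CFBE41o- transduced with ΔF508-CFTR and YFP quench reporter, corrected 24 h at 27° C or by a CFTR modulator at 37° C.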

CFTR G551D mutant = molecular target: T2, CFTR G551D mutant (Homo sapiens, UniProt P13569, G551D); assay: YFP-halide influx assay for the CFTR-G551D mutation (HEK293 cells); assay type: cell-based; conditions: forskolin 10.67 μM
T2 construct: expressed in transfected cells; host or cells: HEK293 cells, reverse transfection with plasmids
How it was run: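 Channel opening read as I⁻-driven quenching of a YFP H148Q/I152L/F47L reporter over 7 s post-injection, expressed as 1−F/F0 and fitted against concentration for EC50. Cells were HEK293 co-transfected at seeding with G551D CFTR plus reporter, then grown 24 h at 37 °C, 5% CO2.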

T1 sequence (P13569 with tags, fused parts or gaps DEL508-508): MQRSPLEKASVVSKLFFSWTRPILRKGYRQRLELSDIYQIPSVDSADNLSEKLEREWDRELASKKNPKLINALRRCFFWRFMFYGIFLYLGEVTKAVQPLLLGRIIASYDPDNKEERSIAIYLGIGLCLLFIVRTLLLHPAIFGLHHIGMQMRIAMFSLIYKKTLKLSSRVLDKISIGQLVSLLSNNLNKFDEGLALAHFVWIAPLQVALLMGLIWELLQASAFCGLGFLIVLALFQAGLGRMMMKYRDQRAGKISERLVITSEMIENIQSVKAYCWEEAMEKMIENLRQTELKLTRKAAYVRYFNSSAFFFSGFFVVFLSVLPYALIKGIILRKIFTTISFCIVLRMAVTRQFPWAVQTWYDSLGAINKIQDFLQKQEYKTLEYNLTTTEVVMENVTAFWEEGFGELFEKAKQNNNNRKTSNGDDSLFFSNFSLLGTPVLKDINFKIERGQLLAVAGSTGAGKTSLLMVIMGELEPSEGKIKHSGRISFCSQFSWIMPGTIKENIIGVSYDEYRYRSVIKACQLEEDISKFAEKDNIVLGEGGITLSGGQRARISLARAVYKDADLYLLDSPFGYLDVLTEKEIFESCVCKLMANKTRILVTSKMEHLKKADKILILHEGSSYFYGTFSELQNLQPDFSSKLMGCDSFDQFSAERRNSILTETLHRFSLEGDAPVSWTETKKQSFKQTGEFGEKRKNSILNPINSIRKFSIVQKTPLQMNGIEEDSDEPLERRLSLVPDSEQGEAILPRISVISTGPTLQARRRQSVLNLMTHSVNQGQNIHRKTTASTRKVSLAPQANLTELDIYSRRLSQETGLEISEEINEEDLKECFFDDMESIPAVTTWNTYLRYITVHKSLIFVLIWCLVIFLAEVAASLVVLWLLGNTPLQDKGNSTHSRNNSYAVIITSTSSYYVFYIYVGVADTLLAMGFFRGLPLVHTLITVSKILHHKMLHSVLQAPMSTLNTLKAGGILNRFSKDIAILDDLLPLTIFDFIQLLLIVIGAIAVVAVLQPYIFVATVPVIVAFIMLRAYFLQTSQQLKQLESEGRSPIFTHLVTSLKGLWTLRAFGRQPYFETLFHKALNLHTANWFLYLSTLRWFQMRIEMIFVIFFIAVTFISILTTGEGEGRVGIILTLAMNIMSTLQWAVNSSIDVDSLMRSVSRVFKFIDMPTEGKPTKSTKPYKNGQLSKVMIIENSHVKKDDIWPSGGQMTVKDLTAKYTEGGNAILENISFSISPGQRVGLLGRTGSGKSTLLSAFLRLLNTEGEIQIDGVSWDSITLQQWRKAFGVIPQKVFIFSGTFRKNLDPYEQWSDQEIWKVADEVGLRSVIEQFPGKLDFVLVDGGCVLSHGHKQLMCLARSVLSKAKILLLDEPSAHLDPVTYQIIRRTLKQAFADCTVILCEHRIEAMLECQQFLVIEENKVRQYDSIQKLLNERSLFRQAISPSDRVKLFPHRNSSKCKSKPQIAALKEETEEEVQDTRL
T2 sequence (P13569 whole entry G551D): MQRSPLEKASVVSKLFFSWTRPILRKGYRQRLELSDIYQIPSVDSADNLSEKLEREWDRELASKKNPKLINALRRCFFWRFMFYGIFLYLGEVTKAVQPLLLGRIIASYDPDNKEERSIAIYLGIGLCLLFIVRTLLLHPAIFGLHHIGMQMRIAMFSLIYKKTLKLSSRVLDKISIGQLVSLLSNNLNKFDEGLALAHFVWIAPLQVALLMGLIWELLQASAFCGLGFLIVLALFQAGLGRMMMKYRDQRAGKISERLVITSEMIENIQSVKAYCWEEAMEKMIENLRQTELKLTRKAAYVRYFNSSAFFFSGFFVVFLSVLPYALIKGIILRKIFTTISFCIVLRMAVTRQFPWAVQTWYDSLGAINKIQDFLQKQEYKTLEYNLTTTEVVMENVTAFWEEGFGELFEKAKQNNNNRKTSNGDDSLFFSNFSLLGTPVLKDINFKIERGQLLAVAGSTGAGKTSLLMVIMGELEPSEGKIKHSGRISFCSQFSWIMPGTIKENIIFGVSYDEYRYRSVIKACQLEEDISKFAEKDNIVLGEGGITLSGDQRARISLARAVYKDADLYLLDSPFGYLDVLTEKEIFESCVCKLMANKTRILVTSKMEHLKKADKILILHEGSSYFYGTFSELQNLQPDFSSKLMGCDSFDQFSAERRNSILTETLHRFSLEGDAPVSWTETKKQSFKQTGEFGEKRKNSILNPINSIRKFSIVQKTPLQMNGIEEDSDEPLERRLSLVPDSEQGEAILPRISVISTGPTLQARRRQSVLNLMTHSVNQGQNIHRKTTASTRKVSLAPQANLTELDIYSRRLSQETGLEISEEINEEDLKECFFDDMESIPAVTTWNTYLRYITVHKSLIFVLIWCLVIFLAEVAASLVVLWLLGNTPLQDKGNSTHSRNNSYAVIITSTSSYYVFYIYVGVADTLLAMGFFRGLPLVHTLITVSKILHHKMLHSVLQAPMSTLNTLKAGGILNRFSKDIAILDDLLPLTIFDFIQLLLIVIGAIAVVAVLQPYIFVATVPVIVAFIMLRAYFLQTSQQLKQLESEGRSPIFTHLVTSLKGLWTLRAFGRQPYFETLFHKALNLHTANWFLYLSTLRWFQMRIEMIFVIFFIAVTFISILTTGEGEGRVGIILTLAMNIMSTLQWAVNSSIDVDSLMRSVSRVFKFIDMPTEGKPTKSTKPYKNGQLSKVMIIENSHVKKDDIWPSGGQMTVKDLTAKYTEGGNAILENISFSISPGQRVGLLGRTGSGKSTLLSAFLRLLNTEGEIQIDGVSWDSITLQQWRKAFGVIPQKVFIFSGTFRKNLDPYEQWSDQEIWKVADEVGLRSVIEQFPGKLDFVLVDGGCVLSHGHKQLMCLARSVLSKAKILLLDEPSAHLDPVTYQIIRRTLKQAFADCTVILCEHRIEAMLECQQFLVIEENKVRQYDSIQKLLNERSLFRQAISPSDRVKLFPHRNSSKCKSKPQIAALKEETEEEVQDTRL

% Activation (CFTR ΔF508 mutant) [%]	EC50 (CFTR ΔF508 mutant) [nM]	% Activation (CFTR G551D mutant) [%]	EC50 (CFTR G551D mutant) [nM]	Structure (SMILES)
95.0	85.2	41.7	> 10000	Nc1cc(S(=O)(=O)c2ccc(OC(F)(F)F)cc2)cnc1C(=O)N[C@@H]1CCOC1 [Compound 128, 3-amino-N-[(3R)-tetrahydrofuran-3-yl]-5-{[4-(trifluoromethoxy)phenyl]sulfonyl}pyridine-2-carboxamide]
74.9	180	25.9	> 10000	Nc1cc(S(=O)(=O)c2ccc(OC(F)(F)F)cc2)cnc1C(=O)NCC1CCOCC1 [Compound 129, 3-amino-N-(tetrahydro-2H-pyran-4-ylmethyl)-5-{[4-(trifluoromethoxy)phenyl]sulfonyl}pyridine-2-carboxamide]
110.2	12.8	68.6	817	Nc1cc(S(=O)(=O)c2ccc(C(F)(F)F)cc2)cnc1C(=O)NCC(O)COCC1CC1 (stereo not shown) [Compound 131, 3-amino-N-[3-(cyclopropylmethoxy)-2-hydroxypropyl]-5-{[4-(trifluoromethyl)phenyl]sulfonyl}pyridine-2-carboxamide]
103.5	5.1	79.2	395	Nc1cc(S(=O)(=O)c2ccc(C(F)(F)F)cc2F)cnc1C(=O)NCC(O)COCC1CC1 (stereo not shown) [Compound 132, 3-amino-N-[3-(cyclopropylmethoxy)-2-hydroxypropyl]-5-{[2-fluoro-4-(trifluoromethyl)phenyl]sulfonyl}pyridine-2-carboxamide]
105.9	3.7	84.2	253	CC(C)OCC(O)CNC(=O)c1ncc(S(=O)(=O)c2ccc(C(F)(F)F)cc2F)cc1N (stereo not shown) [Compound 133, 3-amino-5-{[2-fluoro-4-(trifluoromethyl)phenyl]sulfonyl}-N-[2-hydroxy-3-(propan-2-yloxy)propyl]pyridine-2-carboxamide]
101.6	43.5	76.8	1130	CC1(C)CN(C(=O)c2ncc(S(=O)(=O)c3ccc(OC(F)(F)F)cc3F)cc2N)C1 [Compound 134, (3-amino-5-{[2-fluoro-4-(trifluoromethoxy)phenyl]sulfonyl}pyridin-2-yl)(3,3-dimethylazetidin-1-yl)methanone]
108.7	8.5	43.5	5770	CC(C)NC(=O)CNC(=O)c1ncc(S(=O)(=O)c2ccc(OC(F)(F)F)cc2F)cc1N [Compound 135, 3-amino-5-{[2-fluoro-4-(trifluoromethoxy)phenyl]sulfonyl}-N-[2-oxo-2-(propan-2-ylamino)ethyl]pyridine-2-carboxamide]
113.7	2.9	53.4	> 3330	CN(Cc1ccc(F)c(F)c1)S(=O)(=O)c1cnc(C(=O)NCC(O)C(F)(F)F)c(N)c1 (stereo not shown) [Compound 136, 3-amino-5-[(3,4-difluorobenzyl)(methyl)sulfamoyl]-N-(3,3,3-trifluoro-2-hydroxypropyl)pyridine-2-carboxamide]
110.7	3.7	69.6	420	CN(Cc1ccc(F)cc1F)S(=O)(=O)c1cnc(C(=O)NCC(O)C(F)(F)F)c(N)c1 (stereo not shown) [Compound 137, 3-amino-5-[(2,4-difluorobenzyl)(methyl)sulfamoyl]-N-(3,3,3-trifluoro-2-hydroxypropyl)pyridine-2-carboxamide]
94.5	17.9	49.6	684	COc1ccc(CN(C)S(=O)(=O)c2cnc(C(=O)NCC(O)C(F)(F)F)c(N)c2)cc1 (stereo not shown) [Compound 138, 3-amino-5-[(4-methoxybenzyl)(methyl)sulfamoyl]-N-(3,3,3-trifluoro-2-hydroxypropyl)pyridine-2-carboxamide]
96.6	61.2	40.6	5770	Nc1cc(S(=O)(=O)N2CCOCC2)cnc1C(=O)NCC(O)C(F)(F)F (stereo not shown) [Compound 139, 3-amino-5-(morpholin-4-ylsulfonyl)-N-(3,3,3-trifluoro-2-hydroxypropyl)pyridine-2-carboxamide]
97.7	51	39.9	> 10000	Nc1cc(S(=O)(=O)c2ccc(OC(F)(F)F)cc2)cnc1C(=O)N[C@@H]1CCCOC1 [Compound 140, 3-amino-N-[(3R)-tetrahydro-2H-pyran-3-yl]-5-{[4-(trifluoromethoxy)phenyl]sulfonyl}pyridine-2-carboxamide]
100.6	109	60.4	795	Nc1cc(S(=O)(=O)c2ccc(OC(F)(F)F)cc2)cnc1C(=O)NCCc1ccco1 [Compound 141, 3-amino-N-[2-(furan-2-yl)ethyl]-5-{[4-(trifluoromethoxy)phenyl]sulfonyl}pyridine-2-carboxamide]
97.9	11.9	44.7	399	CC[C@@H](CO)NC(=O)c1ncc(S(=O)(=O)c2ccc(OC(F)(F)F)cc2)cc1N [Compound 142, 3-amino-N-[(2S)-1-hydroxybutan-2-yl]-5-{[4-(trifluoromethoxy)phenyl]sulfonyl}pyridine-2-carboxamide]
91.4	136	80.6	2300	Nc1cc(S(=O)(=O)c2ccc(OC(F)(F)F)cc2)cnc1C(=O)NCC1CCCOC1 (stereo not shown) [Compound 143, 3-amino-N-(tetrahydro-2H-pyran-3-ylmethyl)-5-{[4-(trifluoromethoxy)phenyl]sulfonyl}pyridine-2-carboxamide]
92.6	76.1	50.6	1120	Nc1cc(S(=O)(=O)c2ccc(OC(F)(F)F)cc2)cnc1C(=O)N[C@H]1CCOC1 [Compound 144, 3-amino-N-[(3S)-tetrahydrofuran-3-yl]-5-{[4-(trifluoromethoxy)phenyl]sulfonyl}pyridine-2-carboxamide]
98.8	205	53.9	836	Nc1cc(S(=O)(=O)c2ccc(OC(F)(F)F)cc2)cnc1C(=O)N[C@@H]1CCOc2ccccc21 [Compound 145, 3-amino-N-[(4R)-3,4-dihydro-2H-chromen-4-yl]-5-{[4-(trifluoromethoxy)phenyl]sulfonyl}pyridine-2-carboxamide]
88.4	91.4	58.4	3110	Nc1cc(S(=O)(=O)c2ccc(OC(F)(F)F)cc2)cnc1C(=O)NC1CCOCC1 [Compound 146, 3-amino-N-(tetrahydro-2H-pyran-4-yl)-5-{[4-(trifluoromethoxy)phenyl]sulfonyl}pyridine-2-carboxamide]
105.5	40.9	69.0	1280	Nc1cc(S(=O)(=O)c2ccc(OC(F)(F)F)cc2)cnc1C(=O)NCCC1OCCO1 [Compound 147, 3-amino-N-[2-(1,3-dioxolan-2-yl)ethyl]-5-{[4-(trifluoromethoxy)phenyl]sulfonyl}pyridine-2-carboxamide]
88.8	42.5	60.2	510	CC(C)[C@@H](CO)NC(=O)c1ncc(S(=O)(=O)c2ccc(OC(F)(F)F)cc2)cc1N [Compound 148, 3-amino-N-[(2S)-1-hydroxy-3-methylbutan-2-yl]-5-{[4-(trifluoromethoxy)phenyl]sulfonyl}pyridine-2-carboxamide]
91.2	179	42.7	> 1670	Nc1cc(S(=O)(=O)c2ccc(OC(F)(F)F)cc2)cnc1C(=O)NC1COC2(CCCCC2)C1 (stereo not shown) [Compound 149, 3-amino-N-(1-oxaspiro[4.5]dec-3-yl)-5-{[4-(trifluoromethoxy)phenyl]sulfonyl}pyridine-2-carboxamide]
116.0	355	49.7	1070	Nc1cc(S(=O)(=O)c2ccc(OC(F)(F)F)cc2)cnc1C(=O)NC1COC2(CCCC2)C1 (stereo not shown) [Compound 150, 3-amino-N-(1-oxaspiro[4.4]non-3-yl)-5-{[4-(trifluoromethoxy)phenyl]sulfonyl}pyridine-2-carboxamide]
16.9	> 1000	3.0	> 5000	Nc1cc(S(=O)(=O)c2ccc(OC(F)(F)F)cc2)cnc1C(=O)NC1COC1 [Compound 151, 3-amino-N-(oxetan-3-yl)-5-{[4-(trifluoromethoxy)phenyl]sulfonyl}pyridine-2-carboxamide]
93.3	119	60.2	1130	Nc1cc(S(=O)(=O)c2ccc(OC(F)(F)F)cc2)cnc1C(=O)NCCC1CC1 [Compound 152, 3-amino-N-(2-cyclopropylethyl)-5-{[4-(trifluoromethoxy)phenyl]sulfonyl}pyridine-2-carboxamide]
105.0	75.4	47.6	760	Nc1cc(S(=O)(=O)c2ccc(OC(F)(F)F)cc2)cnc1C(=O)NCC1CC(F)(F)C1 [Compound 153, 3-amino-N-[(3,3-difluorocyclobutyl)methyl]-5-{[4-(trifluoromethoxy)phenyl]sulfonyl}pyridine-2-carboxamide]
